Measured values published in BindingDB's records for doi:10.1021/acschembio.6b00382 (Institut de Ge´ne´tique et de Biologie Mole´culaire et …, 2016).

Target: Aldo-keto reductase family 1 member B1 (Homo sapiens, UniProt P15121)
Assay: IC50-Activity Assay (AR)
Settings: pH 7
Description: (§1) The IC50-activity assays were carried out on the basis of the quantification of the NADPH consumption that takes place when the enzyme catalyzes the conversion of the aldehyde substrate into the alcohol product. […] The final reaction volume was 600 μL per reaction. All compounds were dissolved in dimethyl sulfoxide (DMSO), and the corresponding solution was added to the cell to be assayed in a final concentration of 2% (v/v) DMSO and incubated for 5 min at 25 °C prior to the addition of the substrate. The reaction was initiated by the addition of 1 mM glyceraldehyde, and the decrease in optical density at 340 nm was monitored for at least 3 min at 25 °C in a UV−vis spectrophotometer (Cary 400 Bio (Varian)).

Row | IC50 [µM] | SMILES
1 | 21.4 | O=C(O)COc1cc(Cl)ccc1C(=O)NCc1c(Br)cc(Br)cc1Br [2-(5-chloro-2-((2,4,6-tribromobenzyl)carbamoyl)phenoxy)acetic acid]
2 | 21.7 | O=C(O)COc1cc(Cl)ccc1C(=O)NCc1c(Br)c(Br)c(Br)c(Br)c1Br [2-(5-chloro-2-(((perbromophenyl)methyl)carbamoyl)phenoxy)acetic acid]
3 | 0.003 | O=C(O)COc1cc(F)ccc1C(=S)NCc1ccc(Br)cc1F [IDD594]

Target: Aldo-keto reductase family 1 member B10 [K125R,V301L] (Homo sapiens, UniProt O60218, K125R/V301L)
Sequence (O60218 whole entry K125R/V301L): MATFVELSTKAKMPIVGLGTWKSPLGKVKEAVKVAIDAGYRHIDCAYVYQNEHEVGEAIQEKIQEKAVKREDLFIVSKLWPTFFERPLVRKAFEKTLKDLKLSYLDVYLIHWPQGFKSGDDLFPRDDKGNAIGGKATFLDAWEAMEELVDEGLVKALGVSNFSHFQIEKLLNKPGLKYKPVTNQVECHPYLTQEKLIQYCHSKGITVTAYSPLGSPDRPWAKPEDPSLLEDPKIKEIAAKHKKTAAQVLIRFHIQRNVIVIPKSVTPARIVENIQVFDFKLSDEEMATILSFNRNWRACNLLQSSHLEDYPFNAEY
Assay: IC50-Activity Assay (AR)
Settings: pH 7
Description: as §1

Row | IC50 [µM] | SMILES
4 | 0.45 | COc1c(Br)c(Br)c(Br)c(Br)c1Cn1c(=O)ccn(CC(=O)O)c1=O [2-(2,4-dioxo-3-(2,3,4,5-tetrabromo-6-methoxybenzyl)-3,4-dihydropyrimidin-1(2H)-yl)acetic acid]
5 | 1 | O=C(O)COc1cc(Cl)ccc1C(=O)NCc1c(Br)cc(Br)cc1Br [2-(5-chloro-2-((2,4,6-tribromobenzyl)carbamoyl)phenoxy)acetic acid]
6 | 0.08 | O=C(O)COc1cc(Cl)ccc1C(=O)NCc1c(Br)c(Br)c(Br)c(Br)c1Br [2-(5-chloro-2-(((perbromophenyl)methyl)carbamoyl)phenoxy)acetic acid]
7 | 4.4 | O=C(O)COc1cc(Cl)ccc1C(=O)NCc1ccc(Br)cc1F [IDD388]
8 | 4.5 | O=C(O)COc1cc(Cl)ccc1C(=O)NCc1ccc(Br)cc1 [MK181]
9 | 7 | O=C(O)COc1cc(Cl)ccc1C(=O)NCc1c(F)c(F)c(Br)c(F)c1F [MK319]
10 | 2.69 | CC1=C(CC(=O)O)c2cc(F)ccc2/C1=C\c1ccc([S@@+](C)[O-])cc1 [cis-5-Fluoro-2-methyl-1-((p-methylsulfinyl)benzylidene)indene-3-acetic acid]

Target: T1, Aldo-keto reductase family 1 member B10 (Homo sapiens, UniProt O60218)
T1 sequence (O60218 whole entry): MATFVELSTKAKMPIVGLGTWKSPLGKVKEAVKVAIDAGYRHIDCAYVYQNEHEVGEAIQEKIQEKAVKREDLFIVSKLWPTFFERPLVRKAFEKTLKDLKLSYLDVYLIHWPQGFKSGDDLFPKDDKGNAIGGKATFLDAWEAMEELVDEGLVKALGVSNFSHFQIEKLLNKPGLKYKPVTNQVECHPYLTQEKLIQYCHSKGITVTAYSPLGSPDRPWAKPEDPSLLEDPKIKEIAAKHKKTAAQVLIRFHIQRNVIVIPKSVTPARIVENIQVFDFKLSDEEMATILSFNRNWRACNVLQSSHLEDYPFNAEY
Assay: IC50-Activity Assay (AR)
Settings: pH 7
Description: as §1

Row | IC50 [µM] | SMILES
11 | 1 | O=C(O)COc1cc(Cl)ccc1C(=O)NCc1c(Br)cc(Br)cc1Br [2-(5-chloro-2-((2,4,6-tribromobenzyl)carbamoyl)phenoxy)acetic acid]
12 | 0.08 | O=C(O)COc1cc(Cl)ccc1C(=O)NCc1c(Br)c(Br)c(Br)c(Br)c1Br [2-(5-chloro-2-(((perbromophenyl)methyl)carbamoyl)phenoxy)acetic acid]
13 | 4.4 | O=C(O)COc1cc(Cl)ccc1C(=O)NCc1ccc(Br)cc1F [IDD388]
14 | 4.5 | O=C(O)COc1cc(Cl)ccc1C(=O)NCc1ccc(Br)cc1 [MK181]
15 | 7 | O=C(O)COc1cc(Cl)ccc1C(=O)NCc1c(F)c(F)c(Br)c(F)c1F [MK319]

Target: T1, Aldo-keto reductase family 1 member B10
Assay: IC50-Activity Assay (AKR1B10)
Settings: pH 7
Description: as §1, with “60” for “1”, “glyceraldehyde and 0.2 mM pyridine-3-aldehyde,” for “glyceraldehyde,”, “opticaldensity” for “optical density”

Row | IC50 [µM] | SMILES
16 | 0.43 | O=C(O)COc1cc(Cl)ccc1C(=O)NCc1c(Br)cc(Br)cc1Br [2-(5-chloro-2-((2,4,6-tribromobenzyl)carbamoyl)phenoxy)acetic acid]
17 | 0.03 | O=C(O)COc1cc(Cl)ccc1C(=O)NCc1c(Br)c(Br)c(Br)c(Br)c1Br [2-(5-chloro-2-(((perbromophenyl)methyl)carbamoyl)phenoxy)acetic acid]
18 | 2.7 | O=C(O)COc1cc(Cl)ccc1C(=O)NCc1ccc(Br)cc1F [IDD388]
19 | 3.7 | O=C(O)COc1cc(Cl)ccc1C(=O)NCc1ccc(Br)cc1 [MK181]
20 | 3.4 | O=C(O)COc1cc(Cl)ccc1C(=O)NCc1c(F)c(F)c(Br)c(F)c1F [MK319]
21 | 0.0012 | COc1ccc2c(C(=S)N(C)CC(=O)O)cccc2c1C(F)(F)F [N-{[6-methoxy-5-(trifluoromethyl)naphthalen-1-yl]carbonothioyl}-N-methylglycine]
